What all share (assay type): cell-based
Test [1] has as its system Candida albicans 90028. Nature of the test: In vitro antifungal assay (Example IX), microdilution broth, MIC. Conditions: minimum inhibitory concentration (≥50% inhibition), 35° C., 40-48 h, RPMI1640. In short, it runs like this: (§1)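 CLSI broth microdilution in RPMI1640 with 2.5×10^3 cells/mL and final compound concentrations of 2-0.0019 μg/mL (1% DMSO). C. albicans 90028 plates were incubated at 35° C. for 40-48 h and C. neoformans H99 for 72 h. MIC was read as minimum inhibitory concentration, verified at 600 nm.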

Test [2] relates to Cryptococcus neoformans H99. Described as above. The following applies: minimum inhibitory concentration (≥50% inhibition), 35° C., 72 h, RPMI1640. In short, it runs like this: as §1
The test system of test [3] is Aspergillus fumigatus MYA3626. Nature of the test: In vitro antifungal assay (Example IX), microdilution broth, MEC. Conditions: minimum effective concentration (shortening of hyphae), 35° C., 40-48 h, RPMI1640. In short, it runs like this:
(§2)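 Spore suspensions of A. fumigatus and R. pusillus adjusted to 1-2×10^4 spores/mL in RPMI1640 and exposed to compound dilutions prepared in DMSO, by broth microdilution. MEC taken as the lowest concentration shortening hyphae versus DMSO control wells, read as for echinocandins.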

Test [4] deals with Rhizomucor pusillus 46342. Described as above. The following applies: minimum effective concentration (shortening of hyphae), 35° C., 40-48 h, RPMI1640. In a few lines: as §2
The subject of test [5] is Cryptococcus gattii. Nature of the test: In vitro antifungal assay (Example IX), microdilution broth, MIC. The following applies: minimum inhibitory concentration (≥50% inhibition), 35° C., 72 h (Cryptococcus), RPMI1640. In a few lines: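 Broth microdilution in RPMI1640 with 2.5×10^3 cells/mL inoculum; final compound concentrations were 2–0.0019 μg/mL, with 1% DMSO. Cryptococcus plates were incubated at 35 °C for 72 h, and growth was read at 600 nm to give the MIC.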

Data on 17 compounds can be found in US11512079B2, “Heterocycle substituted pyridine derivative antifungal agents” (Amplyx Pharmaceuticals, Inc., priority 2017, dated 2022).

≈ marks a conversion by molar mass, not a printed value.

The MIC is the lowest concentration that inhibits growth of the organism. The term minimal effective concentration denotes the smallest amount tested that counted as effective. A higher minimal effective concentration goes with weaker potency. Consider `Nc1ncccc1-c1cc(Cc2ccc(OCc3csc(Cl)n3)nc2)no1` [compound 220, 3-(3-((6-((2-chlorothiazol-4-yl)methoxy)pyridin-3-yl)methyl)isoxazol-5-yl)pyridin-2-amine], for which the MIC in test [1], in test [2] and in test [5] was 0.1 to 1 µg/mL (≈ 0.25 to 2.5 µM) each time. The minimal effective concentration in test [3] and in test [4] was 0.1 to 1 µg/mL throughout.
Turning to `Nc1ncccc1-c1cc(Cc2ccc(OCc3ccc(Cl)s3)nc2)no1` [compound 221, 3-(3-((6-((5-chlorothiophen-2-yl)methoxy)pyridin-3-yl)methyl)isoxazol-5-yl)pyridin-2-amine], the minimum inhibitory concentration (MIC) was 0.1 to 1 µg/mL (≈ 0.251 to 2.51 µM) in test [1], 0.01 to 0.1 µg/mL (≈ 0.0251 to 0.251 µM) in test [2] and 0.1 to 1 µg/mL (≈ 0.251 to 2.51 µM) in test [5]. Moreover, the values for the minimal effective concentration in test [3] and in test [4] were 0.01 to 0.1 µg/mL and 0.1 to 1 µg/mL, respectively.
As for `Nc1ncccc1-c1cc(Cc2ccc(OCc3cccc(Cl)n3)nc2)no1` [compound 222, 3-(3-((6-((6-chloropyridin-2-yl)methoxy)pyridin-3-yl)methyl)isoxazol-5-yl)pyridin-2-amine], the figures for the MIC in test [1], in test [2] and in test [5] were 0.01 to 0.1 µg/mL (≈ 0.0254 to 0.254 µM), 0.01 to 0.1 µg/mL (≈ 0.0254 to 0.254 µM) and 0.1 to 1 µg/mL (≈ 0.254 to 2.54 µM), respectively. For the same compound, the minimal effective concentration in test [3] was 0.01 to 0.1 µg/mL; in test [4], above 1 µg/mL.
`Nc1ncccc1-c1cc(Cc2ccc(OCc3cccc(Br)n3)nc2)no1` [compound 223, 3-(3-((6-((6-bromopyridin-2-yl)methoxy)pyridin-3-yl)methyl)isoxazol-5-yl)pyridin-2-amine]: the results for the MIC in test [1], in test [2] and in test [5] were 0.01 to 0.1 µg/mL (≈ 0.0228 to 0.228 µM), 0.1 to 1 µg/mL (≈ 0.228 to 2.28 µM) and 0.1 to 1 µg/mL (≈ 0.228 to 2.28 µM), respectively. Moreover, the minimal effective concentration in test [3] was 0.01 to 0.1 µg/mL; in test [4], above 1 µg/mL.
`N#CCCOc1ccc(Cc2cc(-c3cccnc3N)on2)cn1` [compound 224, 3-((5-((5-(2-aminopyridin-3-yl)isoxazol-3-yl)methyl)pyridin-2-yl)oxy)propanenitrile]: the MIC in test [1], in test [2] and in test [5] was above 1 µg/mL in each case. The minimal effective concentration in test [3] and in test [4] was above 1 µg/mL throughout.
Take `C#CCCOc1ccc(Cc2cc(-c3cccnc3N)on2)cn1` [compound 225, 3-(3-((6-(but-3-yn-1-yloxy)pyridin-3-yl)methyl)isoxazol-5-yl)pyridin-2-amine]: the MIC in test [1], in test [2] and in test [5] was 0.1 to 1 µg/mL (≈ 0.312 to 3.12 µM) in each case. The results for the minimal effective concentration in test [3] and in test [4] were 0.01 to 0.1 µg/mL and 0.1 to 1 µg/mL, respectively.
For `Nc1ncccc1-c1cc(Cc2ccc(OCc3cccc(F)n3)nc2)no1` [compound 226, 3-(3-((6-((6-fluoropyridin-2-yl)methoxy)pyridin-3-yl)methyl)isoxazol-5-yl)pyridin-2-amine], the MIC in test [1] lay in the range of 0.01 to 0.1 µg/mL (≈ 0.0265 to 0.265 µM); in test [2] it was 0.01 to 0.1 µg/mL (≈ 0.0265 to 0.265 µM); in test [5], 0.1 to 1 µg/mL (≈ 0.265 to 2.65 µM). Further, the minimal effective concentration in test [3] is 0.01 to 0.1 µg/mL; in test [4], above 1 µg/mL.
On to `[N-]=[N+]=Nc1cccc(NCc2ccc(Cc3cc(-c4cccnc4N)on3)cc2)c1` [compound 231, 3-(3-(4-(((3-azidophenyl)amino)methyl)benzyl)isoxazol-5-yl)pyridin-2-amine], for which the minimum inhibitory concentration (MIC) in test [1] fell in the range of 0.1 to 1 µg/mL (≈ 0.252 to 2.52 µM); in test [2] it was 0.01 to 0.1 µg/mL (≈ 0.0252 to 0.252 µM); in test [5], 0.01 to 0.1 µg/mL (≈ 0.0252 to 0.252 µM). For the same compound, the minimal effective concentration lay in the range of 0.01 to 0.1 µg/mL in test [3] and 0.1 to 1 µg/mL in test [4].
Regarding `Nc1ncccc1-c1cc(Cc2ccc(Oc3cccc(Cl)n3)cc2)no1` [compound 234, 3-(3-(4-((6-chloropyridin-2-yl)oxy)benzyl)isoxazol-5-yl)pyridin-2-amine], the figures for the MIC in test [1], in test [2] and in test [5] were 0.01 to 0.1 µg/mL (≈ 0.0264 to 0.264 µM), at most 0.01 µg/mL and at most 0.01 µg/mL, respectively. In addition, the minimal effective concentration lay within 0.01 to 0.1 µg/mL in test [3] and 0.1 to 1 µg/mL in test [4].
With `Nc1ncccc1-c1cc(Cc2ccc(Oc3ncccc3F)cc2)no1` [compound 235, 3-(3-(4-((3-fluoropyridin-2-yl)oxy)benzyl)isoxazol-5-yl)pyridin-2-amine], the MIC in test [1] is 0.01 to 0.1 µg/mL (≈ 0.0276 to 0.276 µM); in test [2], at most 0.01 µg/mL; in test [5], at most 0.01 µg/mL. Also, the minimal effective concentration in test [3] lay within 0.01 to 0.1 µg/mL; in test [4], 0.1 to 1 µg/mL.
`Nc1ncccc1-c1cc(Cc2ccc(Oc3ncc(Cl)cc3F)cc2)no1` [compound 236, 3-(3-(4-((5-chloro-3-fluoropyridin-2-yl)oxy)benzyl)isoxazol-5-yl)pyridin-2-amine]: the MIC in test [1], in test [2] and in test [5] was 0.1 to 1 µg/mL (≈ 0.252 to 2.52 µM) each time. Also, the minimal effective concentration in test [3] and in test [4] was 0.1 to 1 µg/mL in each case.
For `Nc1ncccc1-c1cc(Cc2ccc(Nc3c(F)cccc3F)nc2)no1` [compound 237, 5-((5-(2-aminopyridin-3-yl)isoxazol-3-yl)methyl)-N-(2,6-difluorophenyl)pyridin-2-amine], the MIC in test [1], in test [2] and in test [5] was 0.01 to 0.1 µg/mL (≈ 0.0264 to 0.264 µM) each time. For the same compound, the minimal effective concentration in test [3] is 0.1 to 1 µg/mL; in test [4] it was above 1 µg/mL.
As for `Nc1ncccc1-c1cc(Cc2ccc(Oc3cc(F)cc(F)n3)cc2)no1` [compound 239, 3-(3-(4-((4,6-difluoropyridin-2-yl)oxy)benzyl)isoxazol-5-yl)pyridin-2-amine], the MIC in test [1] lay in the range of 0.1 to 1 µg/mL (≈ 0.263 to 2.63 µM); in test [2] it was 0.01 to 0.1 µg/mL (≈ 0.0263 to 0.263 µM); in test [5], 0.01 to 0.1 µg/mL (≈ 0.0263 to 0.263 µM). In addition, the minimal effective concentration in test [3] and in test [4] was 0.1 to 1 µg/mL throughout.
On to `Nc1ncccc1-c1cc(Cc2ccc(Oc3nc(Cl)cs3)cc2)no1` [compound 240, 3-(3-(4-((4-chlorothiazol-2-yl)oxy)benzyl)isoxazol-5-yl)pyridin-2-amine], for which the MIC in test [1] was in the range of 0.1 to 1 µg/mL (≈ 0.26 to 2.6 µM); in test [2], 0.01 to 0.1 µg/mL (≈ 0.026 to 0.26 µM); in test [5], 0.01 to 0.1 µg/mL (≈ 0.026 to 0.26 µM). Also, the minimal effective concentration in test [3] and in test [4] was 0.1 to 1 µg/mL each time.
In the case of `Nc1ncccc1-c1cc(Cc2ccc(Oc3nc(F)c(F)cc3F)cc2)no1` [compound 241, 3-(3-(4-((3,5,6-trifluoropyridin-2-yl)oxy)benzyl)isoxazol-5-yl)pyridin-2-amine], the MIC in test [1] was in the range of 0.1 to 1 µg/mL (≈ 0.251 to 2.51 µM); in test [2] it was 0.01 to 0.1 µg/mL (≈ 0.0251 to 0.251 µM); in test [5], 0.01 to 0.1 µg/mL (≈ 0.0251 to 0.251 µM). The minimal effective concentration in test [3] fell in the range of 0.01 to 0.1 µg/mL; in test [4], 0.1 to 1 µg/mL.
For `Nc1ncccc1-c1cc(Cc2ccc(Oc3ncc(F)cc3F)cc2)no1` [compound 242, 3-(3-(4-((3,5-difluoropyridin-2-yl)oxy)benzyl)isoxazol-5-yl)pyridin-2-amine], the MIC in test [1] is 0.01 to 0.1 µg/mL (≈ 0.0263 to 0.263 µM); in test [2] it was 0.01 to 0.1 µg/mL (≈ 0.0263 to 0.263 µM); in test [5] it was at most 0.01 µg/mL. Further, the minimal effective concentration was 0.01 to 0.1 µg/mL in test [3] and 0.1 to 1 µg/mL in test [4].
As for `Nc1ncccc1-c1cc(Cc2ccc(Oc3ncccn3)cc2)no1` [compound 243, 3-(3-(4-(pyrimidin-2-yloxy)benzyl)isoxazol-5-yl)pyridin-2-amine], the MIC in test [1], in test [2] and in test [5] was 0.1 to 1 µg/mL (≈ 0.29 to 2.9 µM) throughout. The minimal effective concentration in test [3] is 0.1 to 1 µg/mL; in test [4], above 1 µg/mL.
